Experimental data published in patent US12247004B2, “2-amino-N-(amino-oxo-aryl-lambda6-sulfanylidene)acetamide compounds and their therapeutic use” (Oxford Drug Design Limited, priority 2019, dated 2025).
≈ marks a conversion by molar mass, not a printed value. Structures can show the parent of a compound that is named as a salt. Where two headings read alike, the source gives them in different places.

What was measured:
[1] = molecular target: Leucyl-tRNA synthetase (LeuRS) (Escherichia coli (strain K12), UniProt P07813); experiment: Leucyl-tRNA synthetase enzyme inhibition (AMP-Glo; single point % inhibition at 100 μM and IC50); type: biochemical
Sequence of Leucyl-tRNA synthetase (LeuRS) (P07813 whole entry, looked up): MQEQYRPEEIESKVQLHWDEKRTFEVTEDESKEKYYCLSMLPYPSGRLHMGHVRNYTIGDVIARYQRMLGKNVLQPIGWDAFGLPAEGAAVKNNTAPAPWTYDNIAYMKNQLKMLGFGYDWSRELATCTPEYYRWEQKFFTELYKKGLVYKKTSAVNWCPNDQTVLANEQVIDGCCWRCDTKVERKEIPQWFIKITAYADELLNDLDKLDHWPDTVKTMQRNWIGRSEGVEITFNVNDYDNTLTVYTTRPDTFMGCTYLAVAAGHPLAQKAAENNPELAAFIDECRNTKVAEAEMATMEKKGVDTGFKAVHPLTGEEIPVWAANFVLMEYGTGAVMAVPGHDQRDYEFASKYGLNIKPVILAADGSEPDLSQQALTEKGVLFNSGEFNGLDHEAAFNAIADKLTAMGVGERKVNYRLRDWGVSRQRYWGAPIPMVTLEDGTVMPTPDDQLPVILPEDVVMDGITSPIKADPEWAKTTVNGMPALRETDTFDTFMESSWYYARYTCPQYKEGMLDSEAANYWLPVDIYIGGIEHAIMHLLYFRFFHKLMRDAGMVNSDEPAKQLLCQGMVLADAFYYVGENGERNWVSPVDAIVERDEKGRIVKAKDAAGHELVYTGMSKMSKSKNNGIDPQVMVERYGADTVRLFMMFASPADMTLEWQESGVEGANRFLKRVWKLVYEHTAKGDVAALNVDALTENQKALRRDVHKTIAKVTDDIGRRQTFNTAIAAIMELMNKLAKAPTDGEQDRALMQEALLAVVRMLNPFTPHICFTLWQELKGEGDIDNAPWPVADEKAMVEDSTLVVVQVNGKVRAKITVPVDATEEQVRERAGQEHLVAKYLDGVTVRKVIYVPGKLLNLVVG

[2] = Human cell viability / cytotoxicity (CellTiter-Glo, 24 hours); type: cell-based; conditions: human, HepG2 cells (ATCC HB-8065); HepG2 ATCC HB-8065, 24 hours; read-out: Cytotoxicity in HepG2 ATCC HB-8065 Cell Line, IC50
Procedure: Study 3—Human Cell Viability
Compounds were assessed for potential non-specific cytotoxic effects against a human hepatic cell line (HepG2 ATCC HB-8065). 96-well plates were seeded with HepG2 cells in concentration of 15,000 cells per well in 100 μL of MEM growth media completed with 1% NEAA and 1% sodium pyruvate. Border wells were filled with 100 μL of sterile PBS. Two days upon cells incubation, the compounds were added. Compound dilutions were prepared in 96-well V-bottom plate in pure DMSO. Growth media from 5 plates were aspirated and replaced with 98.7 μL of fresh growth media. 1.28 μL of compounds prepared in V-bottom plates were transferred with multichannel pipette into test plates (78.1× dilution). Final DMSO concentration was 1.28% per well. In control wells, 1.28 μL of DMSO was added in 98.7 μL of media. Compounds were tested in duplicates. Cells were incubated with compounds for 24 hours when cell viability was assessed by measuring ATP levels. ATP levels were measured by adding 50 μL of CellTiter-Glo reagent to each well and after 5 minutes of incubation luminescence was measured with SpectraMax i3. The potential effect of tested compounds on cell viability was determined by comparing the signal obtained in presence of different concentrations of the compounds with those obtained in the presence of DMSO only. The potential effects were then calculated and presented as IC50 values (μg/mL).

[3] = system: bacteria (ATCC reference strains); experiment: Antibacterial activity, MIC by broth micro-dilution (CLSI)
[4] = E. coli LeuRS, read-out: Enzyme Inhibition - IC50, E. coli LeuRS
[5] = Acinetobacter baumannii, read-out: Antibacterial Activity (MIC), E = A. baumannii B1931
[6] = Enterobacter cloacae, read-out: Antibacterial Activity (MIC), B = Enterobacter cloacae B1966
[7] = Escherichia coli, ATCC25922, read-out: Antibacterial Activity (MIC), A = E. coli ATCC 25922
[8] = Haemophilus influenzae, ATCC49247, read-out: Antibacterial Activity (MIC), F = H. influenzae ATCC 49247
[9] = Klebsiella pneumoniae, ATCC700603, read-out: Antibacterial Activity (MIC), C = K. pneumoniae ATCC 700603
[10] = Pseudomonas aeruginosa, ATCC27853, read-out: Antibacterial Activity (MIC), D = P. aeruginosa ATCC 27853
[11] = Escherichia coli, BAA2469, read-out: Antibacterial Activity (MIC), G = E. coli BAA-2469

SMILES | IC50 [1, 4] [nM] | IC50 at 24 h [2] [µg/mL] | MIC [3, 5] [µg/mL] | MIC [3, 6] [µg/mL] | MIC [3, 7] [µg/mL] | MIC [3, 8] [µg/mL] | MIC [3, 9] [µg/mL] | MIC [3, 10] [µg/mL] | IC50 [1] [nM] | MIC [3, 11] [µg/mL]
CC(C)C[C@H](N)C(=O)N=[S@@](N)(=O)c1ccc(Cl)s1 [ANASIA-009-2] | 149 | > 64 | 64 (≈ 207 µM) | 32 (≈ 103 µM) | 4 (≈ 12.9 µM) | 8 (≈ 25.8 µM) | 32 (≈ 103 µM) | > 64 |  | 
CC(C)C[C@H](N)C(=O)N=[S@](N)(=O)c1sccc1Cl.Cl [ANASIA-012-1] |  | > 64 | 64 | 32 | 4 | 8 | 64 | > 64 | 87.4 | 16
CC(C)C[C@H](N)C(=O)N=S(N)(=O)c1sccc1Cl (some centres unmarked) [ANASIA-012] | 155 | > 64 | > 64 | 64 (≈ 207 µM) | 8 (≈ 25.8 µM) | 16 (≈ 51.6 µM) | > 64 | > 64 |  | 32 (≈ 103 µM)
Cc1ccc([S@@](N)(=O)=NC(=O)[C@@H](N)CC(C)C)s1.Cl [ANASIA-014-1] |  | > 64 | 64 | 16 | 4 | 4 | 64 | > 64 | 81.1 | 
Cc1ccsc1[S@@](N)(=O)=NC(=O)[C@@H](N)CC(C)C.Cl [ANASIA-015-1] |  | > 64 | 64 | 16 | 2 | 8 | 16 | 64 | 56.5 | 5.66
CC(C)C[C@H](N)C(=O)N=S(N)(=O)c1ccc(C(F)F)s1 (some centres unmarked) [ANASIA-017] |  | > 64 | > 64 | > 64 | 16 (≈ 49.2 µM) | 8 (≈ 24.6 µM) | > 64 | > 64 | 145 | 
CC(C)C[C@H](N)C(=O)N=[S@](N)(=O)c1cc(F)ccc1F.Cl [ANASIA-024-1] |  | > 64 | > 64 | > 64 | 16 | 16 | > 64 | > 64 | 141 | 
CC(C)C[C@H](N)C(=O)N=[S@](N)(=O)c1cccc(C#N)c1.Cl [ANASIA-041-1] |  | > 64 | > 64 | > 64 | 5.66 | 2.83 | > 64 | > 64 | 17.7 | 64
CC(C)C[C@H](N)C(=O)N=[S@](N)(=O)c1cccc(C(C)C)c1.Cl [ANASIA-043-1] |  | > 64 | > 64 | > 64 | > 64 | 45.3 | > 64 | > 64 | 112 | 
CC(C)C[C@H](N)C(=O)N=[S@](N)(=O)c1cccc(Br)c1.Cl [ANASIA-044-1] |  | > 64 | 64 | 16 | 2 | 2 | 64 | > 64 | 71 | 
CC(C)C[C@H](N)C(=O)N=[S@](N)(=O)c1cccc(Cl)c1Cl.Cl [ANASIA-046-1] |  | > 64 | > 64 | > 64 | > 64 | 64 | > 64 | > 64 | 960 | 
CC(C)C[C@H](N)C(=O)N=[S@](N)(=O)c1cccc(Oc2ccc(Cl)cc2)c1.Cl [ANASIA-047-1] |  | 46.5 | > 64 | > 64 | > 64 | 64 | > 64 | > 64 | 76.4 | 
CC(C)C[C@H](N)C(=O)N=[S@](N)(=O)c1cccc(-c2cccc(F)c2)c1 [ANASIA-051-1, (S)-2-amino-N—((S)-amino(3′-fluoro-[1,1′-biphenyl]-3-yl)(oxo)-λ6-sulfanylidene)-4-methylpentanamide hydrochloride] |  | > 64 |  |  |  |  |  |  | 601 | 
CC(C)C[C@H](N)C(=O)N=[S@](N)(=O)c1scc(Cl)c1Cl.Cl [ANASIA-081-1] |  | > 64 | 32 |  | 2 | 1 | 256 | > 64 | 33.9 | 8
